Reference: US9586969B2, “Microbiocidal heterobicyclic derivatives” (Syngenta Participations AG, priority 2014, dated 2017)
Like-named read-outs stand apart in the source and are kept apart here.

Experiments:
Type in all cases: cell-based
[1] = tested on: Botryotinia fuckeliana (Botrytis cinerea); experiment: Botryotinia fuckeliana (Botrytis cinerea) / liquid culture (Gray mould); conditions: 72 h, read-out: disease control
[2] = tested on: Glomerella lagenarium (Colletotrichum lagenarium); experiment: Glomerella lagenarium (Colletotrichum lagenarium) / liquid culture (Anthracnose); conditions: Colletotrichum orbiculare, read-out: disease control
[3] = tested on: Monographella nivalis (Microdochium nivale); experiment: Monographella nivalis (Microdochium nivale) / liquid culture (Foot rot cereals); conditions: 96 h, read-out: disease control
Fusarium culmorum = experiment: microbe, parasite or virus in culture; conditions: 72 h, read-out: disease control
[4] = 200 ppm, liquid culture, 24° C., inhibition of growth determined photometrically 3-4 days after application, vs untreated control
[5] = 200 ppm, liquid culture, 24° C., inhibition of growth measured photometrically 3-4 days after application, vs untreated control
[6] = 200 ppm, liquid culture, 24° C., inhibition of growth determined photometrically 4-5 days after application, vs untreated control

SMILES | inhibition of growth at 200 ppm [1, 4] [%] | inhibition of growth at 200 ppm [2, 5] [%] | inhibition of growth at 200 ppm [3, 6] [%] | inhibition of growth at 200 ppm [1] [%] | inhibition of growth at 200 ppm [2] [%] | inhibition of growth at 200 ppm [3] [%] | inhibition of growth at 200 ppm (Fusarium culmorum) [%]
Cc1c(C2=NC(C)(C)C(C)(C)c3c(F)cccc32)cnn2c(C#N)ccc12 [E 83] | ≥ 80 | ≥ 80 | – | – | – | – | –
CC1(C)N=C(c2cnn3c(C(F)(F)F)cc(C(F)(F)F)c3c2)c2cccc(F)c2C1(C)C [E 36] | ≥ 80 | – | – | – | – | – | –
CC1(C)N=C(c2cnn3c(Cl)cc(Cl)c3c2)c2cccc(F)c2C1(C)C [E 69] | ≥ 80 | ≥ 80 | ≥ 80 | – | – | – | –
CC1(C)N=C(c2cnn3c(F)cc(C(F)(F)F)c3c2)c2cccc(F)c2C1(C)C [E 35] | ≥ 80 | ≥ 80 | – | – | – | – | –
CC1(C)Cc2c(F)cccc2C(c2cnn3ccnc3c2)=N1 [E 86] | ≥ 80 | – | – | – | – | – | –
CC1(C)N=C(c2cnn3c(Cl)ccc3c2)c2cccc(F)c2C1(C)C [E 13] | – | – | – | ≥ 80 | ≥ 80 | ≥ 80 | –
CC1(C)N=C(c2cnn3c(C(F)(F)F)ccc3c2)c2cccc(F)c2C1(C)C [E 43] | ≥ 80 | ≥ 80 | ≥ 80 | – | – | – | –
CC1(C)N=C(c2cnn3cccc3c2)c2cccc(C#N)c2C1(C)C [E 68] | ≥ 80 | ≥ 80 | – | – | – | – | –
Cc1cccc2c1CC(C)(C)N=C2c1cnn2cccc2c1 [E 4] | ≥ 80 | ≥ 80 | ≥ 80 | – | – | – | –
CC1(C)N=C(c2cnn3cccc3c2)c2ccccc2C1(C)C [E 61] | ≥ 80 | ≥ 80 | – | – | – | – | ≥ 80
CC1(C)N=C(c2cnn3ccnc3c2)c2cccc(F)c2C1(F)F [E 89] | ≥ 80 | ≥ 80 | – | – | – | – | –
CC1(C)N=C(c2cnn3cccc3c2)c2cccc(F)c2C1(C)C [E 45] | – | – | – | – | – | – | ≥ 80
CC1(C)Cc2c(Br)cccc2C(c2cnn3c(F)ccc3c2)=N1 [E 9] | ≥ 80 | ≥ 80 | ≥ 80 | – | – | – | ≥ 80
C#Cc1cc(F)n2ncc(C3=NC(C)(C)C(C)(C)c4c(F)cccc43)cc12 [E 40] | ≥ 80 | ≥ 80 | – | – | – | – | –
Cc1ccc2cc(C3=NC(C)(C)Cc4c(F)cccc43)cnn12 [E 26] | ≥ 80 | ≥ 80 | ≥ 80 | – | – | – | ≥ 80
Cc1ccc2cc(C3=NC(C)(C)C(C)(C)c4c(F)cccc43)cnn12 [E 53] | ≥ 80 | ≥ 80 | ≥ 80 | – | – | – | ≥ 80
CO/N=C(/C)c1cccc2c1CC(C)(C)N=C2c1cnn2cccc2c1 [E 57] | ≥ 80 | ≥ 80 | – | – | – | – | –
CC1(C)N=C(c2cnn3c(Br)cc(Br)c3c2)c2cccc(F)c2C1(C)C [E 44] | ≥ 80 | – | – | – | – | – | –
Cc1c(C2=NC(C)(C)C(C)(C)c3c2ccc(F)c3F)cnn2cccc12 [E 81] | ≥ 80 | ≥ 80 | – | – | – | – | ≥ 80

SMILES | inhibition of growth at 200 ppm [1, 4] [%] | inhibition of growth at 200 ppm [2, 5] [%] | inhibition of growth at 200 ppm [3, 6] [%] | inhibition of growth at 200 ppm [1] [%] | inhibition of growth at 200 ppm [2] [%] | inhibition of growth at 200 ppm [3] [%] | inhibition of growth at 200 ppm (Fusarium culmorum) [%]
CC1(C)Cc2c(cccc2-c2ccccc2F)C(c2cnn3c(F)ccc3c2)=N1 [E 28] | ≥ 80 | ≥ 80 | – | – | – | – | –
CC1(C)Cc2ccccc2C(c2cnn3c(Br)ccc3c2)=N1 [E 65] | ≥ 80 | – | ≥ 80 | – | – | – | –
CC1(C)Cc2c(Cl)cccc2C(c2cnn3cccc3c2)=N1 [E 6] | ≥ 80 | ≥ 80 | ≥ 80 | – | – | – | ≥ 80
CC1(C)Cc2c(cccc2C2CC2)C(c2cnn3cccc3c2)=N1 [E 59] | ≥ 80 | – | – | – | – | – | –
CC1(C)Cc2c(OC(F)F)cccc2C(c2cnn3cccc3c2)=N1 [E 39] | ≥ 80 | – | – | – | – | – | –
CO/N=C(\C)c1cccc2c1CC(C)(C)N=C2c1cnn2cccc2c1 [E 56] | ≥ 80 | ≥ 80 | – | – | – | – | –
CC1(C)Cc2c(F)cccc2C(c2cnn3c(F)ccc3c2)=N1 [E 7, 5-fluoro-1-(7-fluoro-pyrrolo[1,2-b]pyridazin-3-yl)-3,3-dimethyl-3,4-dihydro-isoquinoline] | ≥ 80 | ≥ 80 | ≥ 80 | – | – | – | ≥ 80
CC1(C)Cc2ccccc2C(c2cnn3cccc3c2)N1 (stereo not drawn) [E 20] | ≥ 80 | – | – | – | – | – | –
CC1(C)Cc2c(C#N)cccc2C(c2cnn3cccc3c2)=N1 [E 58] | ≥ 80 | ≥ 80 | – | – | – | – | ≥ 80
Cc1nn2cccc2cc1C1=NC(C)(C)C(C)(C)c2c(F)cccc21 [E 92] | ≥ 80 | ≥ 80 | – | – | – | – | –
CC1(C)N=C(c2cnn3cccc3c2)c2ccccc2C1(F)F [E 71] | ≥ 80 | ≥ 80 | ≥ 80 | – | – | – | ≥ 80
CC1(C)N=C(c2cnn3c(Br)cnc3c2)c2cccc(F)c2C1(F)F [E 91] | ≥ 80 | – | – | – | – | – | –
CC1(C)N=C(c2cnn3c(I)ccc3c2)c2cccc(F)c2C1(C)C [E 37] | ≥ 80 | ≥ 80 | ≥ 80 | – | – | – | –
CC1(C)Cc2ccccc2C(c2cnn3cccc3c2)=N1 [E 10, 3,3-dimethyl-1-pyrrolo[1,2-b]pyridazin-3-yl-4H-isoquinoline] | ≥ 80 | ≥ 80 | ≥ 80 | – | – | – | –
CC1(C)N=C(c2cnn3cc(F)cc3c2)c2cccc(F)c2C1(C)C [E 74] | ≥ 80 | ≥ 80 | ≥ 80 | – | – | – | ≥ 80
CC1(C)N=C(c2cnn3c(C#N)ccc3c2)c2cccc(F)c2C1(C)C [E 52] | ≥ 80 | ≥ 80 | ≥ 80 | – | – | – | ≥ 80
Cc1c(C2=NC(C)(C)C(C)(C)c3c(F)cccc32)cnn2c(Br)ccc12 [E 82] | ≥ 80 | ≥ 80 | ≥ 80 | – | – | – | –
CC1(C)N=C(c2cnn3ccc(Cl)c3c2)c2cccc(F)c2C1(C)C [E 16] | ≥ 80 | ≥ 80 | – | – | – | – | –
CC1(C)Cc2c(F)cccc2C(c2cnn3c(F)cc(F)c3c2)=N1 [E 11] | ≥ 80 | ≥ 80 | – | – | – | – | –

SMILES | inhibition of growth at 200 ppm [1, 4] [%] | inhibition of growth at 200 ppm [2, 5] [%] | inhibition of growth at 200 ppm [3, 6] [%] | inhibition of growth at 200 ppm [1] [%] | inhibition of growth at 200 ppm [2] [%] | inhibition of growth at 200 ppm [3] [%] | inhibition of growth at 200 ppm (Fusarium culmorum) [%]
COc1cccc2c1CC(C)(C)N=C2c1cnn2c(F)ccc2c1 [E 23] | ≥ 80 | ≥ 80 | – | – | – | – | –
CC1(C)N=C(c2cnn3ccc(Br)c3c2)c2ccccc2C1(F)F [E 70] | ≥ 80 | ≥ 80 | ≥ 80 | – | – | – | –
CC1(C)Cc2ccccc2C(c2cnn3c(F)ccc3c2)=N1 [E 8] | ≥ 80 | ≥ 80 | ≥ 80 | – | – | – | –
CC1(C)N=C(c2cnn3ccc(Br)c3c2)c2ccccc2C1=O [E 67] | – | ≥ 80 | ≥ 80 | – | – | – | –
CC1(C)Cc2c(C#N)cccc2C(c2cnn3c(F)ccc3c2)=N1 [E 22] | ≥ 80 | ≥ 80 | ≥ 80 | – | – | – | ≥ 80
CC1(C)N=C(c2cnn3cccc3c2)c2ccc(Cl)c(F)c2C1(C)C [E 94] | ≥ 80 | ≥ 80 | – | – | – | – | –
CC1(C)Cc2c(cccc2C(F)F)C(c2cnn3cccc3c2)=N1 [E 32] | ≥ 80 | ≥ 80 | ≥ 80 | – | – | – | ≥ 80
CC1(C)N=C(c2cnn3cccc3c2)c2ccc(F)cc2C1(C)C [E 72] | ≥ 80 | ≥ 80 | ≥ 80 | – | – | – | ≥ 80
CC1(C)Cc2c(O)cccc2C(c2cnn3cccc3c2)=N1 [E 34] | ≥ 80 | ≥ 80 | – | – | – | – | –
Cc1c(C2=NC(C)(C)C(C)(C)c3c(F)cccc32)cnn2c(F)ccc12 [E 95] | ≥ 80 | ≥ 80 | – | – | – | – | –
CC1(C)N=C(c2cnn3ccnc3c2)c2cccc(F)c2C1(C)C [E 85] | ≥ 80 | ≥ 80 | ≥ 80 | – | – | – | –
CC1(C)N=C(c2cnn3c(F)cc(C#N)c3c2)c2cccc(F)c2C1(C)C [E 25] | ≥ 80 | ≥ 80 | ≥ 80 | – | – | – | –
CC1(C)N=C(c2cnn3c(C#N)cnc3c2)c2cccc(F)c2C1(F)F [E 88] | ≥ 80 | – | – | – | – | – | –
Cc1c(C2=NC(C)(C)C(C)(C)c3c(F)cccc32)cnn2cccc12 [E 93] | ≥ 80 | ≥ 80 | – | – | – | – | –
Cc1cnc2cc(C3=NC(C)(C)C(F)(F)c4c(F)cccc43)cnn12 [E 90] | ≥ 80 | ≥ 80 | ≥ 80 | – | – | – | ≥ 80
C#Cc1ccc2cc(C3=NC(C)(C)C(C)(C)c4c(F)cccc43)cnn12 [E 62] | ≥ 80 | ≥ 80 | ≥ 80 | – | – | – | –
Cc1c(C2=NC(C)(C)C(C)(C)c3cc(F)ccc32)cnn2cccc12 [E 79] | ≥ 80 | ≥ 80 | – | – | – | – | ≥ 80
Cc1nn2cccc2cc1C1=NC(C)(C)C(C)(C)c2cc(F)ccc21 [E 78] | ≥ 80 | ≥ 80 | – | – | – | – | ≥ 80
